Source: the supplement of paper PMC10307832

How the values were obtained:
Test in all cases: relative viability (nuclei count vs DMSO), 5 days (fraction); higher = more cells survive
Cediranib + Pemetrexed = compound: COc1cc2c(Oc3ccc4[nH]c(C)cc4c3F)ncnc2cc1OCCCN1CCCC1 [Cediranib] + Nc1nc2[nH]cc(CCc3ccc(C(=O)N[C@@H](CCC(=O)O)C(=O)O)cc3)c2c(=O)[nH]1 [Pemetrexed] (partner 0.2 µM)
Method in brief: (§1)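 Lung cancer cell lines in 1536-well plates got either a single drug or a fixed anchor-drug dose together with five library-drug doses (not always all listed) in √10 steps, by pin tool, on the day after seeding. Nuclei were counted after 5 days, and relative viability is the treated-to-vehicle ratio of nuclei counts. Values are medians of duplicate plates.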

Decitabine + Alpelisib = compound: Nc1ncn([C@H]2C[C@H](O)[C@@H](CO)O2)c(=O)n1 [Decitabine] + Cc1nc(NC(=O)N2CCC[C@H]2C(N)=O)sc1-c1ccnc(C(C)(C)C(F)(F)F)c1 [Alpelisib] (partner 2 µM)
Method in brief: as §1

Cediranib + Bortezomib = compound: COc1cc2c(Oc3ccc4[nH]c(C)cc4c3F)ncnc2cc1OCCCN1CCCC1 [Cediranib] + CC(C)C[C@H](NC(=O)[C@H](Cc1ccccc1)NC(=O)c1cnccn1)B(O)O [Bortezomib] (partner 0.002 µM)
Method in brief: as §1

Halofuginone + Foretinib = compound: O=C(C[C@H]1NCCC[C@@H]1O)Cn1cnc2cc(Br)c(Cl)cc2c1=O (racemic) [Halofuginone] + COc1cc2c(Oc3ccc(NC(=O)C4(C(=O)Nc5ccc(F)cc5)CC4)cc3F)ccnc2cc1OCCCN1CCOCC1 [Foretinib] (partner 0.25 µM)
Method in brief: as §1

Cell Line	relative viability (Cediranib + Pemetrexed; first compound 0.04 µM)	relative viability (Cediranib + Pemetrexed; first compound 0.1265 µM)	relative viability (Cediranib + Pemetrexed; first compound 0.4 µM)	relative viability (Cediranib + Pemetrexed; first compound 1.265 µM)	relative viability (Cediranib + Pemetrexed; first compound 4 µM)	relative viability (Decitabine + Alpelisib; first compound 0.04 µM)	relative viability (Decitabine + Alpelisib; first compound 0.1265 µM)	relative viability (Decitabine + Alpelisib; first compound 0.4 µM)	relative viability (Decitabine + Alpelisib; first compound 1.265 µM)	relative viability (Decitabine + Alpelisib; first compound 4 µM)	relative viability (Cediranib + Bortezomib; first compound 0.04 µM)	relative viability (Cediranib + Bortezomib; first compound 0.1265 µM)	relative viability (Cediranib + Bortezomib; first compound 0.4 µM)	relative viability (Cediranib + Bortezomib; first compound 1.265 µM)	relative viability (Cediranib + Bortezomib; first compound 4 µM)	relative viability (Halofuginone + Foretinib; first compound 0.001 µM)	relative viability (Halofuginone + Foretinib; first compound 0.003162 µM)	relative viability (Halofuginone + Foretinib; first compound 0.01 µM)	relative viability (Halofuginone + Foretinib; first compound 0.03162 µM)	relative viability (Halofuginone + Foretinib; first compound 0.1 µM)
NCI-H2087	0.734	0.678	0.633	0.587	0.63	0.683	0.564	0.487	0.338	0.36	0.849	0.739	0.775	0.722	0.697	1.28	1.14	1.04	1.29	0.331
HCC-366	0.491	0.161	0.149	0.18	0.173	0.455	0.597	0.31	0.133	0.0897	0.968	1.03	0.963	0.888	1.22	0.952	0.973	0.876	1.02	0.514
NCI-H2126	0.701	0.595	0.627	0.725	0.748	0.673	0.659	0.521	0.521	0.424	1.14	1.2	1.09	0.963	1.11	1.28	1.19	1.16	1.17	0.947
SK-LU-1	1.11	1.01	0.969	0.956	1.18	0.62	0.637	0.485	0.5	0.284	1.22	1.24	1.13	0.956	1.17	0.921	0.8	0.753	0.759	0.406
HCC-78	0.912	0.879	0.901	0.899	0.901	0.324	0.293	0.285	0.204	0.247	0.51	0.576	0.504	0.533	0.601	0.593	0.635	0.488	0.684	0.552
LCLC-97TM1	0.205	–	0.154	0.218	0.177	0.172	0.151	0.14	0.129	0.112	0.351	–	0.643	0.769	0.578	1.02	0.947	0.935	1.02	0.935
NCI-H1563	0.885	0.879	0.843	0.675	0.872	1.06	0.965	1.02	0.97	0.824	0.912	0.794	0.885	0.796	0.889	0.985	0.879	0.905	0.662	0.509
NCI-H838	0.252	0.241	0.229	0.257	0.231	0.715	0.461	0.409	0.396	0.276	0.812	0.557	0.926	0.713	1.05	1.18	1.02	1	0.681	0.395
NCI-H520	0.668	0.789	0.623	0.602	0.563	0.896	0.69	0.597	0.369	0.337	0.734	–	0.687	0.462	0.622	0.808	0.798	0.767	0.58	0.424
NCI-H2347	0.397	0.353	0.425	0.454	0.44	0.898	0.848	0.675	0.597	0.665	1.09	0.819	0.93	1.02	0.96	1.35	0.929	0.994	0.841	1
NCI-H441	0.265	0.291	0.258	0.271	0.257	0.412	0.334	0.276	0.214	0.259	0.304	0.688	–	0.498	0.934	1.08	1.03	0.823	0.643	0.362
NCI-H2405	1.02	1.01	0.997	1.1	1.16	0.737	0.753	0.698	0.494	0.373	1.05	0.475	0.982	0.894	0.983	1.11	1.1	1.03	1.02	0.888
HCC-15	0.209	0.222	0.226	0.218	0.22	0.799	0.773	0.441	0.438	0.302	1.06	–	1	1.12	1.01	1.02	1.1	1.05	0.967	0.787
